Assay results taken from ChEMBL document CHEMBL1135414, “Structure-activity relationships at human and rat A2B adenosine receptors of xanthine derivatives substituted at the 1-, 3-, 7-, and 8-positions” (J Med Chem, 2002).

How the values were obtained:
Adenosine receptor A2b [1] = molecular target: T1, Adenosine receptor A2b (Homo sapiens, UniProt P29275); experiment: Binding affinity at human Adenosine A2B receptor expressed in HEK293 cells, using [125I]ABOPX as radioligand; assay type: cell-based
T1 sequence (P29275 whole entry): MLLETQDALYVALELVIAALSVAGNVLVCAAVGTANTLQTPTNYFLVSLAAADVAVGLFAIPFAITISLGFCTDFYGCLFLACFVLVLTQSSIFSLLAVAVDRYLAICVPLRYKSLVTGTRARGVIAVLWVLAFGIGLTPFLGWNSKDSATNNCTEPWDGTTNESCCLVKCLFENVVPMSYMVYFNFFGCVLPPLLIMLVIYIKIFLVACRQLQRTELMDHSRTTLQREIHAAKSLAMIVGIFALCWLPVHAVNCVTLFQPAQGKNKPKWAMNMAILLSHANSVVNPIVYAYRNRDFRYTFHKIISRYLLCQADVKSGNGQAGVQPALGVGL

Rattus norvegicus [2] = species: Rattus norvegicus; experiment: Relative affinities for rat Adenosine A1 and Adenosine A2B receptors
Adenosine receptor A2a = Adenosine receptor A2a (Rattus norvegicus, UniProt P30543); experiment: Binding affinity at rat Adenosine A2A receptor by [3H]-CGS- 21680 displacement.
Chain of Adenosine receptor A2a (P30543 whole entry): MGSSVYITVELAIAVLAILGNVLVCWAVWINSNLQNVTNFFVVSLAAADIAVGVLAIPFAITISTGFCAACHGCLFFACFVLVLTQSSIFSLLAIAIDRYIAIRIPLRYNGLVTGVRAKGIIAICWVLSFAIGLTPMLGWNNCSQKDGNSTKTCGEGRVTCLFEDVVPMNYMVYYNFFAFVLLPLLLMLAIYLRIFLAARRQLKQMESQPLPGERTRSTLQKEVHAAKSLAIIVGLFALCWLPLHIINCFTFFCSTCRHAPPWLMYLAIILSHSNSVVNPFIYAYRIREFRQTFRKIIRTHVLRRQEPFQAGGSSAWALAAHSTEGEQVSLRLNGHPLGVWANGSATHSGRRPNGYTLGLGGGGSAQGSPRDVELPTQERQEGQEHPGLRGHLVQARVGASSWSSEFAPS

Adenosine receptor A2b [3] = molecular target: T2, Adenosine receptor A2b (Rattus norvegicus, UniProt P29276); experiment: Inhibition of […] binding to rat Adenosine A2B receptor expressed in HEK cells; assay type: cell-based, HEK293
T2 sequence (P29276 whole entry): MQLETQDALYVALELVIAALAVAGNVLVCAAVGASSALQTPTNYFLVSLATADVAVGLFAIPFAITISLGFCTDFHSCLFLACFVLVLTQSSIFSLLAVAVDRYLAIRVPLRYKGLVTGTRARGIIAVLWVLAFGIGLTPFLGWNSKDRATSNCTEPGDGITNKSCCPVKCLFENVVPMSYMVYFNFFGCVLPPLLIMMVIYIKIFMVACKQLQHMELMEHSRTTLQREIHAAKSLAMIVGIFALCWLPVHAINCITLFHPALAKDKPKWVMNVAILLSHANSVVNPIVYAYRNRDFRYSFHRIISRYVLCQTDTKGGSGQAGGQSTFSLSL

[4] = molecular target: T3, Adenosine receptor A1 (Rattus norvegicus) (UniProt P25099); experiment: Percent displacement of [3H]-R-PIA from rat Adenosine A1 receptor in HEK293 cells; assay type: cell-based
T3 sequence (whole entry): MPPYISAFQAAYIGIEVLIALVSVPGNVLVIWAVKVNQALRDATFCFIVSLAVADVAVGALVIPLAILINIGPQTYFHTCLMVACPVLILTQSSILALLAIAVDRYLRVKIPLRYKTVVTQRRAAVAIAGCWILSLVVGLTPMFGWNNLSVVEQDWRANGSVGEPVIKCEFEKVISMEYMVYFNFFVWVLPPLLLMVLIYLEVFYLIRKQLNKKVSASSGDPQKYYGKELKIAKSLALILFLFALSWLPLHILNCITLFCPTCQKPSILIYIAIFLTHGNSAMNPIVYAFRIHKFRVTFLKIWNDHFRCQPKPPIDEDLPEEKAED

Rattus norvegicus [5] = species: Rattus norvegicus; experiment: Relative affinities for rat Adenosine A2A and Adenosine A2B receptors
Adenosine receptor A3 = molecular target: T4, Adenosine receptor A3 (Homo sapiens, UniProt P0DMS8); experiment: Inhibition of [125I]I-AB-MECA binding to human Adenosine A3 receptor
T4 sequence (P0DMS8 whole entry): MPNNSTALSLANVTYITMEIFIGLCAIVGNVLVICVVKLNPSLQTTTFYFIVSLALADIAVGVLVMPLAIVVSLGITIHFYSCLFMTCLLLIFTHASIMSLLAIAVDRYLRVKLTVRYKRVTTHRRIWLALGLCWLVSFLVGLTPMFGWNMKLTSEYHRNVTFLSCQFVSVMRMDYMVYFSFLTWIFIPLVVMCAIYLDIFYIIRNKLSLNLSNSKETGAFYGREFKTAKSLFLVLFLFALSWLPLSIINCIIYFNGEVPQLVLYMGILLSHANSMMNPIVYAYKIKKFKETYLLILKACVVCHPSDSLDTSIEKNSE

Adenosine receptor A1 = molecular target: T5, Adenosine receptor A1 (Rattus norvegicus, UniProt P25099); experiment: Binding affinity of [3H]R-PIA for rat Adenosine A1 receptor in HEK293 cells
T5 sequence (P25099 whole entry): T3 sequence (whole entry)

C=CCn1c(=O)c2c(nc(-c3ccccc3)n2CCCl)n(C)c1=O showed a Ki (Adenosine receptor A2b [1]) of 311 nM, a Ratio (Rattus norvegicus [2]) of over 6 and a Ki (Adenosine receptor A2a) of 3570 nM. The Ki (Adenosine receptor A2b [3]) was 1700 nM, the Displacement [4] was 35% and the Ratio (Rattus norvegicus [5]) was 2.1.

CCCn1c(=O)[nH]c2nc[nH]c2c1=O gave a Ki (Adenosine receptor A2b [1]) of 360 nM, a Ki (Adenosine receptor A3) of 2370 nM and a Ki (Adenosine receptor A2b [3]) of 1880 nM. The Ki (Adenosine receptor A1) was 3310 nM.
